The values below are quoted from earlier work in patent US20100136089A1, “LOCATION OF FATTY ACID ESTERS ON TAMPONS AND TOXIN […]” (priority 2008, published 2010).

This data set relates to humans. To be noted: stated as known.

As to `CCCCCCCCCCCC(=O)OCC(O)CO` (stereo not shown) [GML, glycerol monolaurate], the toxicity to humans result is “non toxic to humans”.
